# Laboratory results reported in PubChem BioAssay (NCI).
#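 96-well plates; 48 h exposure; 5 concentrations. Endpoints by linear interpolation between flanking doses. Not reached: highest tested concentration assigned. At the GI50, growth is halved. At the TGI there is no net growth.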
# Assays:
# Test in all cases: growth of human tumour cells (NCI), 48 h
# SK-MEL-2 melanoma = tested on: SK-MEL-2 melanoma
# OVCAR-8 ovarian = tested on: OVCAR-8 ovarian
# HL-60(TB) leukemia = tested on: HL-60(TB) leukemia
# OVCAR-3 ovarian = tested on: OVCAR-3 ovarian
# SNB-19 CNS = tested on: SNB-19 CNS
# SK-OV-3 ovarian = tested on: SK-OV-3 ovarian
# SF-539 CNS = tested on: SF-539 CNS
# NCI/ADR-RES ovarian = tested on: NCI/ADR-RES ovarian
# UACC-62 melanoma = tested on: UACC-62 melanoma
# MCF7 breast = tested on: MCF7 breast
# EKVX NSCLC = tested on: EKVX NSCLC
# ACHN renal = tested on: ACHN renal
# A498 renal = tested on: A498 renal
# SF-295 CNS = tested on: SF-295 CNS
# SF-268 CNS = tested on: SF-268 CNS
# MDA-MB-435 = tested on: MDA-MB-435
# MOLT-4 leukemia = tested on: MOLT-4 leukemia
# A549 NSCLC = tested on: A549 NSCLC
# SR leukemia = tested on: SR leukemia
# 786-0 renal = tested on: 786-0 renal
# HT29 colon = tested on: HT29 colon
# HCT-15 colon = tested on: HCT-15 colon
# IGROV1 ovarian = tested on: IGROV1 ovarian
# UO-31 renal = tested on: UO-31 renal
# SN12C renal = tested on: SN12C renal
# COLO 205 colon = tested on: COLO 205 colon
# OVCAR-5 ovarian = tested on: OVCAR-5 ovarian
# CCRF-CEM leukemia = tested on: CCRF-CEM leukemia
# NCI-H23 lung = tested on: NCI-H23 lung
# NCI-H522 lung = tested on: NCI-H522 lung
# CAKI-1 renal = tested on: CAKI-1 renal
# K-562 leukemia = tested on: K-562 leukemia
# HCC-2998 colon = tested on: HCC-2998 colon
# NCI-H460 lung = tested on: NCI-H460 lung
# NCI-H226 lung = tested on: NCI-H226 lung
# KM12 colon = tested on: KM12 colon
# HOP-92 NSCLC = tested on: HOP-92 NSCLC
# RPMI-8226 leukemia = tested on: RPMI-8226 leukemia
# UACC-257 melanoma = tested on: UACC-257 melanoma
# DU-145 prostate = tested on: DU-145 prostate
# MALME-3M melanoma = tested on: MALME-3M melanoma
# HCT-116 colon = tested on: HCT-116 colon
# SK-MEL-28 melanoma = tested on: SK-MEL-28 melanoma
# TK-10 renal = tested on: TK-10 renal
# SNB-75 CNS = tested on: SNB-75 CNS
# LOX IMVI melanoma = tested on: LOX IMVI melanoma
# T-47D breast = tested on: T-47D breast
# U251 CNS = tested on: U251 CNS
# RXF 393 renal = tested on: RXF 393 renal
# OVCAR-4 ovarian = tested on: OVCAR-4 ovarian
# MDA-MB-231 breast = tested on: MDA-MB-231 breast
# HOP-62 NSCLC = tested on: HOP-62 NSCLC
# SK-MEL-5 melanoma = tested on: SK-MEL-5 melanoma
# BT-549 breast = tested on: BT-549 breast
# HS 578T breast = tested on: HS 578T breast
# SW-620 colon = tested on: SW-620 colon
# PC-3 prostate = tested on: PC-3 prostate
compound,measurement,setting,value
CCOC(=O)c1c(NC(=O)c2ccc(C(F)(F)F)cc2)sc2c(CN3CCN(C)CC3)c(O)ccc12,GI50,SK-MEL-2 melanoma,2210 nM
same,TGI,SK-MEL-2 melanoma,5000 nM
same,GI50,OVCAR-8 ovarian,2140 nM
same,TGI,OVCAR-8 ovarian,4770 nM
same,GI50,HL-60(TB) leukemia,1780 nM
same,TGI,HL-60(TB) leukemia,3940 nM
same,GI50,OVCAR-3 ovarian,1750 nM
same,TGI,OVCAR-3 ovarian,3170 nM
same,GI50,SNB-19 CNS,1790 nM
same,TGI,SNB-19 CNS,3480 nM
same,GI50,SK-OV-3 ovarian,1930 nM
same,TGI,SK-OV-3 ovarian,4210 nM
same,GI50,SF-539 CNS,1630 nM
same,TGI,SF-539 CNS,3020 nM
same,GI50,NCI/ADR-RES ovarian,1920 nM
same,TGI,NCI/ADR-RES ovarian,3830 nM
same,GI50,UACC-62 melanoma,1790 nM
same,TGI,UACC-62 melanoma,3590 nM
same,GI50,MCF7 breast,1820 nM
same,TGI,MCF7 breast,3650 nM
same,GI50,EKVX NSCLC,2620 nM
same,TGI,EKVX NSCLC,8150 nM
same,GI50,ACHN renal,1810 nM
same,TGI,ACHN renal,3210 nM
same,GI50,A498 renal,1630 nM
same,TGI,A498 renal,3300 nM
same,GI50,SF-295 CNS,1940 nM
same,TGI,SF-295 CNS,3980 nM
same,GI50,SF-268 CNS,1870 nM
same,TGI,SF-268 CNS,4010 nM
same,GI50,MDA-MB-435,1730 nM
same,TGI,MDA-MB-435,3120 nM
same,GI50,MOLT-4 leukemia,1740 nM
same,TGI,MOLT-4 leukemia,4000 nM
same,GI50,A549 NSCLC,1850 nM
same,TGI,A549 NSCLC,3850 nM
same,GI50,SR leukemia,1110 nM
same,TGI,SR leukemia,3420 nM
same,GI50,786-0 renal,1550 nM
same,TGI,786-0 renal,3320 nM
same,GI50,HT29 colon,1830 nM
same,TGI,HT29 colon,3680 nM
same,GI50,HCT-15 colon,1740 nM
same,TGI,HCT-15 colon,3500 nM
same,GI50,IGROV1 ovarian,1790 nM
same,TGI,IGROV1 ovarian,3470 nM
same,GI50,UO-31 renal,1510 nM
same,TGI,UO-31 renal,2950 nM
same,GI50,SN12C renal,1760 nM
same,TGI,SN12C renal,3440 nM
same,GI50,COLO 205 colon,1870 nM
same,TGI,COLO 205 colon,3760 nM
same,GI50,OVCAR-5 ovarian,1770 nM
same,TGI,OVCAR-5 ovarian,3190 nM
same,GI50,CCRF-CEM leukemia,1950 nM
same,TGI,CCRF-CEM leukemia,4770 nM
same,GI50,NCI-H23 lung,2110 nM
same,TGI,NCI-H23 lung,4730 nM
same,GI50,NCI-H522 lung,2190 nM
same,TGI,NCI-H522 lung,5560 nM
same,GI50,CAKI-1 renal,1650 nM
same,TGI,CAKI-1 renal,3160 nM
same,GI50,K-562 leukemia,1130 nM
same,TGI,K-562 leukemia,5860 nM
same,GI50,HCC-2998 colon,1710 nM
same,TGI,HCC-2998 colon,3230 nM
same,GI50,NCI-H460 lung,1770 nM
same,TGI,NCI-H460 lung,3380 nM
same,GI50,NCI-H226 lung,1950 nM
same,TGI,NCI-H226 lung,4070 nM
same,GI50,KM12 colon,1790 nM
same,TGI,KM12 colon,3340 nM
same,GI50,HOP-92 NSCLC,1360 nM
same,TGI,HOP-92 NSCLC,3110 nM
same,GI50,RPMI-8226 leukemia,1730 nM
same,TGI,RPMI-8226 leukemia,3950 nM
same,GI50,UACC-257 melanoma,2120 nM
same,TGI,UACC-257 melanoma,4980 nM
same,GI50,DU-145 prostate,1970 nM
same,TGI,DU-145 prostate,3790 nM
same,GI50,MALME-3M melanoma,1990 nM
same,TGI,MALME-3M melanoma,4280 nM
same,GI50,HCT-116 colon,1680 nM
same,TGI,HCT-116 colon,3340 nM
same,GI50,SK-MEL-28 melanoma,1730 nM
same,TGI,SK-MEL-28 melanoma,3160 nM
same,GI50,TK-10 renal,1620 nM
same,TGI,TK-10 renal,3160 nM
same,GI50,SNB-75 CNS,2050 nM
same,TGI,SNB-75 CNS,4920 nM
same,GI50,LOX IMVI melanoma,1780 nM
same,TGI,LOX IMVI melanoma,3190 nM
same,GI50,T-47D breast,1840 nM
same,TGI,T-47D breast,4540 nM
same,GI50,U251 CNS,1790 nM
same,TGI,U251 CNS,3370 nM
same,GI50,RXF 393 renal,1590 nM
same,TGI,RXF 393 renal,3810 nM
same,GI50,OVCAR-4 ovarian,2050 nM
same,TGI,OVCAR-4 ovarian,4430 nM
same,GI50,MDA-MB-231 breast,1860 nM
same,TGI,MDA-MB-231 breast,3560 nM
same,GI50,HOP-62 NSCLC,1820 nM
same,TGI,HOP-62 NSCLC,3990 nM
same,GI50,SK-MEL-5 melanoma,3030 nM
same,TGI,SK-MEL-5 melanoma,10100 nM
same,GI50,BT-549 breast,1850 nM
same,TGI,BT-549 breast,4150 nM
same,GI50,HS 578T breast,1990 nM
same,TGI,HS 578T breast,4520 nM
same,GI50,SW-620 colon,1710 nM
same,TGI,SW-620 colon,3200 nM
same,GI50,PC-3 prostate,1690 nM
same,TGI,PC-3 prostate,3220 nM
